Data as given in ChEMBL document CHEMBL1926646 (Bioorg Med Chem, 2011).

What was measured:
Rattus norvegicus [1] = test: AUC in Sprague-Dawley rat at 10 mg/kg, po; type: ADME, organism-based, Plasma; parameters: dose 10 mg/kg, route oral; details: in vivo
[2] = Total clearance in Beagle dog at 0.2 mg/kg, iv; type: ADME, organism-based, Canis lupus familiaris; parameters: dose 0.2 mg/kg, route intravenous; details: in vivo
[3] = Drug excretion in bile-duct cannulated Sprague-Dawley rat urine assessed as unchanged drug at 5 mg/kg, iv measured over 24 hrs; type: ADME, organism-based; parameters: dose 5 mg/kg, route intravenous; details: read-out: AE
Cytochrome P450 1A2 [4] = molecular target: T1, Cytochrome P450 1A2 (Homo sapiens, UniProt P05177); test: Inhibition of CYP1A2; type: ADME
T1 sequence (P05177 whole entry): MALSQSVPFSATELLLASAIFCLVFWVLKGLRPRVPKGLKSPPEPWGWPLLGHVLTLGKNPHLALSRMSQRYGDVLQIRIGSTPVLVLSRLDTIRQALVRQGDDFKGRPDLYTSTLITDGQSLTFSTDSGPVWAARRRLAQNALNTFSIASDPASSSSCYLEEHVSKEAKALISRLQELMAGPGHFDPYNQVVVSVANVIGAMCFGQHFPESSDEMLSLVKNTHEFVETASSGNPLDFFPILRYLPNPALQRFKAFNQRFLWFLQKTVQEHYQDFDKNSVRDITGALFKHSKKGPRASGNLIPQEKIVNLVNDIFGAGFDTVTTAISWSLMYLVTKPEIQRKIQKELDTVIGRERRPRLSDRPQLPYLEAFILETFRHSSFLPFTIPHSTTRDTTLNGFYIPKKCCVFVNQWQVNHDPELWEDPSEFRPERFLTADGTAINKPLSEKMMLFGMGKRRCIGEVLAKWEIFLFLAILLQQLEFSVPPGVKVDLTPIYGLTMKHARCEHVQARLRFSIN

Cytochrome P450 2C19 = Cytochrome P450 2C19 (Homo sapiens, UniProt P33261); test: Inhibition of CYP2C19; type: ADME
Chain of Cytochrome P450 2C19 (P33261 whole entry): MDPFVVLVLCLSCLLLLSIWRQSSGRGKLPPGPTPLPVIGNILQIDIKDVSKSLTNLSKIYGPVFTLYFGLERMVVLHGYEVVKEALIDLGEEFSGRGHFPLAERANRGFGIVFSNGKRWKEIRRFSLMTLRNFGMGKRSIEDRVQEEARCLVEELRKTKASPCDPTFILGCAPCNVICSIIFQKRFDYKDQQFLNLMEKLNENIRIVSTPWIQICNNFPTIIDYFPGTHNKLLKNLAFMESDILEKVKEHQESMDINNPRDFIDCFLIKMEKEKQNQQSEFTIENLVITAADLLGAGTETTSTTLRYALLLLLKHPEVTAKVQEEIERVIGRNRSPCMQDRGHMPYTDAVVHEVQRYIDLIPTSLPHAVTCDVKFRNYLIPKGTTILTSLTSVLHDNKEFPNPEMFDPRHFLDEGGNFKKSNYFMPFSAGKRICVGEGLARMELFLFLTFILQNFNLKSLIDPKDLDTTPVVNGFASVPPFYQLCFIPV

Cytochrome P450 3A4 [5] = molecular target: T2, Cytochrome P450 3A4 (Homo sapiens, UniProt P08684); test: Induction of CYP3A4 at 50 uM; type: ADME
T2 sequence (P08684 whole entry): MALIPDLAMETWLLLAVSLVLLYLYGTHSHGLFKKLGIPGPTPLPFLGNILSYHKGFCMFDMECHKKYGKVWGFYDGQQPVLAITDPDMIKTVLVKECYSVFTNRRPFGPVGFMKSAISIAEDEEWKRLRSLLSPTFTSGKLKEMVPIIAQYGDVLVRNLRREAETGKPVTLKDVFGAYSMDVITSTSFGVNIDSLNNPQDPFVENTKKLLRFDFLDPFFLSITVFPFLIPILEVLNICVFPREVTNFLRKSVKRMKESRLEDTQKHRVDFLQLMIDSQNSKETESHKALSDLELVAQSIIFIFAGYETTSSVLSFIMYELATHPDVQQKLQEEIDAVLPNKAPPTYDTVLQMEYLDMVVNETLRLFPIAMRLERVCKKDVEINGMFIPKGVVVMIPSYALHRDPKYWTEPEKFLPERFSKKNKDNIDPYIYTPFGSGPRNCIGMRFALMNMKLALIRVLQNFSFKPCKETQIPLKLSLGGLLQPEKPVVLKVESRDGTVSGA

[6] = Terminal half life in Sprague-Dawley rat at 10 mg/kg, po; type: ADME, organism-based; parameters: dose 10 mg/kg, route oral; details: in vivo, read-out: beta t1/2 (converted)
[7] = Intrinsic clearance in dog liver microsomes; type: ADME, Canis lupus familiaris, Microsome
[8] = Cmax in Sprague-Dawley rat at 3 mg/kg, po; type: ADME, organism-based; parameters: dose 3 mg/kg, route oral; details: in vivo
[9] = Terminal half life in Beagle dog at 0.5 mg/kg, po; type: ADME, organism-based, Canis lupus familiaris; parameters: dose 0.5 mg/kg, route oral; details: in vivo, read-out: beta t1/2 (converted)
[10] = Total clearance in Sprague-Dawley rat at 1 mg/kg, iv; type: ADME, organism-based; parameters: dose 1 mg/kg, route intravenous; details: in vivo
Rattus norvegicus [11] = test: Volume of distribution at steady state in Sprague-Dawley rat at 1 mg/kg, iv; type: ADME, organism-based; parameters: dose 1 mg/kg, route intravenous; details: in vivo
Dipeptidyl peptidase 9 = Dipeptidyl peptidase 9 (Homo sapiens, UniProt Q86TI2); test: Inhibition of human recombinant DPP-9 expressed in Sf9 cells using H-Gly-Pro-AMC as substrate preincubated for 30 mins before substrate addition measured after 20 mins by fluorescence assay
Chain of Dipeptidyl peptidase 9 (Q86TI2 whole entry): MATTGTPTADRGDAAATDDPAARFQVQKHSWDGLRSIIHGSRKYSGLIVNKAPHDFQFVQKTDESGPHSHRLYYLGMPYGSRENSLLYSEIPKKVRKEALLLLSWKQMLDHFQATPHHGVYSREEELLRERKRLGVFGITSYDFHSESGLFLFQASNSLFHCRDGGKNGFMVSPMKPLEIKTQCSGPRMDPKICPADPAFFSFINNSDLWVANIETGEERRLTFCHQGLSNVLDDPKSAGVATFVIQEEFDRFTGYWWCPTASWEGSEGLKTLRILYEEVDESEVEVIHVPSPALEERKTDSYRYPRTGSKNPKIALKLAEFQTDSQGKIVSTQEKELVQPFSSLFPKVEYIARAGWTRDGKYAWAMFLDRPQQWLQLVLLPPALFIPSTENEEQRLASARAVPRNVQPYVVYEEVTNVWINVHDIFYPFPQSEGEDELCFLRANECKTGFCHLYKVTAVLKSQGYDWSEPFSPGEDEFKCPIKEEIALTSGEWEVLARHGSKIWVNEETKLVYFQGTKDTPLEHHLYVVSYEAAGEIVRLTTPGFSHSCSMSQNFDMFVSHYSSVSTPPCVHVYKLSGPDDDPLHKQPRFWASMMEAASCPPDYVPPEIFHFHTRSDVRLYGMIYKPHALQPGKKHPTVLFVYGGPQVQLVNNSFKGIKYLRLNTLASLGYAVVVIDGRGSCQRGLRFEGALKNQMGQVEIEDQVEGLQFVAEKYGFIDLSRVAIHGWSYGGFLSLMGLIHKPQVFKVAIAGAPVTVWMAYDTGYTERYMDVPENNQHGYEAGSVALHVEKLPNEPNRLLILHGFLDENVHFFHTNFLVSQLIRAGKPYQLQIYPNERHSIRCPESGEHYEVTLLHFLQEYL

[12] = Plasma protein binding in rat at 20 ng/ml after 0.5 hrs by LC-MS/MS analysis; type: ADME, cell-free; details: read-out: PPB (converted)
[13] = Drug excretion in bile-duct cannulated Sprague-Dawley rat bile assessed as unchanged drug at 1 mg/kg, iv measured over 24 hrs; type: ADME, organism-based; parameters: dose 1 mg/kg, route intravenous; details: read-out: AE
[14] = Intrinsic clearance in human liver microsomes; type: ADME, Microsome
[15] = molecular target: Voltage-gated inwardly rectifying potassium channel KCNH2 (Homo sapiens, UniProt Q12809); test: Inhibition of human ERG expressed in HEK293 cells by patch clamp assay; type: cell-based
Chain of Voltage-gated inwardly rectifying potassium channel KCNH2 (Q12809 whole entry): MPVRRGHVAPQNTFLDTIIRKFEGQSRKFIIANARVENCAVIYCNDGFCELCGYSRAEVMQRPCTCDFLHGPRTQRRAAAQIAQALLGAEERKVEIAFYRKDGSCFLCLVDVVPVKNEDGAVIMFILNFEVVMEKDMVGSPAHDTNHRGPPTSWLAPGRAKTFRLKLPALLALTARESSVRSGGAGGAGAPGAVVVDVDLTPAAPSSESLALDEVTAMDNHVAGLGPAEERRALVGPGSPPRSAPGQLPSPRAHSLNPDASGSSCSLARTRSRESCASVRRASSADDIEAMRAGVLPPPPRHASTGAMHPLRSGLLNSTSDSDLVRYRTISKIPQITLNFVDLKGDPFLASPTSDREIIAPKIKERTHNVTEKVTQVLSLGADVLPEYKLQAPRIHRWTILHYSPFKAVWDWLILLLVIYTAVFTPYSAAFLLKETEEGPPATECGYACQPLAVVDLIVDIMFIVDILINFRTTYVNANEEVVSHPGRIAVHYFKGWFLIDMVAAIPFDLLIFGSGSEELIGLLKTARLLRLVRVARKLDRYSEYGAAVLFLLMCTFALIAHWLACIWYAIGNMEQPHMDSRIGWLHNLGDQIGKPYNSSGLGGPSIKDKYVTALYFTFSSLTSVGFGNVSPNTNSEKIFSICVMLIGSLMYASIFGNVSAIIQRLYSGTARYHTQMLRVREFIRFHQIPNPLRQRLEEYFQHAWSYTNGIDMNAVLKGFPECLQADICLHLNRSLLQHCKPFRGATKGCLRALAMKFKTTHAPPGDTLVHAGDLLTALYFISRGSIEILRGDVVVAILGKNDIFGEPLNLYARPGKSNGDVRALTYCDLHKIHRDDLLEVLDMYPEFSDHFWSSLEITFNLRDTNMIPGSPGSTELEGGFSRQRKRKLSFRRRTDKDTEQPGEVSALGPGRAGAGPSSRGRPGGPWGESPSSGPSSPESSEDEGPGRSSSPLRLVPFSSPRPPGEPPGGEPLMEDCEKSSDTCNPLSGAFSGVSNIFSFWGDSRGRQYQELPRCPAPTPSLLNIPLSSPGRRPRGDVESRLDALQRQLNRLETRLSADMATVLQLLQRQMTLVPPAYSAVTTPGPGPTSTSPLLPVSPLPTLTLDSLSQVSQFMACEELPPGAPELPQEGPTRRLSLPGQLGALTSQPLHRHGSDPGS

[16] = Tmax in Beagle dog at 0.5 mg/kg, po; type: ADME, organism-based, Canis lupus familiaris; parameters: dose 0.5 mg/kg, route oral; details: in vivo
[17] = Oral bioavailability in Sprague-Dawley rat at 10 mg/kg; type: ADME, organism-based; details: in vivo
Cytochrome P450 1A2 [18] = molecular target: T1, Cytochrome P450 1A2; test: Induction of CYP1A2 at 50 uM; type: ADME
[19] = Drug excretion in bile-duct cannulated Sprague-Dawley rat urine assessed as unchanged drug at 1 mg/kg, iv measured over 24 hrs; type: ADME, organism-based; parameters: dose 1 mg/kg, route intravenous; details: read-out: AE
[20] = Intrinsic clearance in rat liver microsomes; type: ADME, Microsome
[21] = Oral bioavailability in Beagle dog at 0.5 mg/kg; type: ADME, organism-based, Canis lupus familiaris; details: in vivo
[22] = Tmax in Sprague-Dawley rat at 3 mg/kg, po; type: ADME, organism-based; parameters: dose 3 mg/kg, route oral; details: in vivo
[23] = Cmax in Beagle dog at 0.5 mg/kg, po; type: ADME, organism-based, Canis lupus familiaris; parameters: dose 0.5 mg/kg, route oral; details: in vivo
Canis familiaris [24] = test: Volume of distribution at steady state in Beagle dog at 0.2 mg/kg, iv; type: ADME, organism-based, Canis lupus familiaris; parameters: dose 0.2 mg/kg, route intravenous; details: in vivo
[25] = Cmax in Sprague-Dawley rat at 10 mg/kg, po; type: ADME, organism-based; parameters: dose 10 mg/kg, route oral; details: in vivo
[26] = Drug excretion in bile-duct cannulated Sprague-Dawley rat bile assessed as unchanged drug at 5 mg/kg, iv measured over 24 hrs; type: ADME, organism-based; parameters: dose 5 mg/kg, route intravenous; details: read-out: AE
[27] = Tmax in Sprague-Dawley rat at 10 mg/kg, po; type: ADME, organism-based; parameters: dose 10 mg/kg, route oral; details: in vivo
Cytochrome P450 2C9 [28] = molecular target: T3, Cytochrome P450 2C9 (Homo sapiens, UniProt P11712); test: Inhibition of CYP2C9; type: ADME
T3 sequence (P11712 whole entry): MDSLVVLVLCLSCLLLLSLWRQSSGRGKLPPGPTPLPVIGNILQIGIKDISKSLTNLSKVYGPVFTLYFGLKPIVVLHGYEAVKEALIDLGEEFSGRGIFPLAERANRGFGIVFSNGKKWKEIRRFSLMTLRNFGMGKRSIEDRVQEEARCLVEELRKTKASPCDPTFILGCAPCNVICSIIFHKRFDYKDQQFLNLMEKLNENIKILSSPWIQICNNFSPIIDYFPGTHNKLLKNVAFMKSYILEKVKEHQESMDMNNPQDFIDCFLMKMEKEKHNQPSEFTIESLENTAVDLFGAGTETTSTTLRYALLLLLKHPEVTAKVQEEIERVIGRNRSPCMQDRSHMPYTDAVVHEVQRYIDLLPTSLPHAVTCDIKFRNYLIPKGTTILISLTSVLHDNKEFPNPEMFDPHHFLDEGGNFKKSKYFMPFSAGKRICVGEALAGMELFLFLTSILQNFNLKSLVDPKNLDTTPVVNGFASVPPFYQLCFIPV

[29] = Plasma protein binding in dog at 20 ng/ml after 0.5 hrs by LC-MS/MS analysis; type: ADME, cell-free, Canis lupus familiaris; details: read-out: PPB (converted)
[30] = Drug level in Sprague-Dawley rat plasma at 3 mg/kg at Tmax; type: ADME, organism-based; parameters: dose 3 mg/kg; details: read-out: Drug uptake
Salmonella typhimurium = test: Mutagenic activity in Salmonella Typhimurium by Ames test; type: toxicity, organism-based; details: salmonella enterica subsp. enterica serovar typhimurium
Cytochrome P450 2C8 = molecular target: T4, Cytochrome P450 2C8 (Homo sapiens, UniProt P10632); test: Induction of CYP2C8 at 50 uM; type: ADME
T4 sequence (P10632 whole entry): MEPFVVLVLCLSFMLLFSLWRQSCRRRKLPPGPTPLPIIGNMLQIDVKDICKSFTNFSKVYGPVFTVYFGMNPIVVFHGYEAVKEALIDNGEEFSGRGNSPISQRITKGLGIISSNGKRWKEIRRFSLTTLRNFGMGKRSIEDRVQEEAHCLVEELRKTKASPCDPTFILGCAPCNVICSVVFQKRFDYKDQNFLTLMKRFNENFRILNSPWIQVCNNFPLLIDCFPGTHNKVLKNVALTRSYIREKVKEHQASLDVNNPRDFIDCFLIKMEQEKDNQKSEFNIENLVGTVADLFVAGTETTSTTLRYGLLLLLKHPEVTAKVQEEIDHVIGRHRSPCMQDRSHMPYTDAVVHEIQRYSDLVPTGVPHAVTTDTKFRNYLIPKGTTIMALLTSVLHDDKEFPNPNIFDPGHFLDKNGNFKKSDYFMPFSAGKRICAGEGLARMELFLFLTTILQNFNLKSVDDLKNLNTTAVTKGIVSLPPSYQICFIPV

Rattus norvegicus [31] = test: Inhibition of plasma DPP-4 activity in Wistar/ST rat at 0.1 mg/kg, po pretreated 30 mins before glucose challenge measured for 2 hrs during oral glucose tolerance test; type: functional
[32] = Intrinsic clearance in monkey liver microsomes; type: ADME, Macaca mulatta, Microsome; details: rhesus monkey
Cytochrome P450 2D6 = Cytochrome P450 2D6 (Homo sapiens, UniProt P10635); test: Inhibition of CYP2D6; type: ADME
Chain of Cytochrome P450 2D6 (P10635 whole entry): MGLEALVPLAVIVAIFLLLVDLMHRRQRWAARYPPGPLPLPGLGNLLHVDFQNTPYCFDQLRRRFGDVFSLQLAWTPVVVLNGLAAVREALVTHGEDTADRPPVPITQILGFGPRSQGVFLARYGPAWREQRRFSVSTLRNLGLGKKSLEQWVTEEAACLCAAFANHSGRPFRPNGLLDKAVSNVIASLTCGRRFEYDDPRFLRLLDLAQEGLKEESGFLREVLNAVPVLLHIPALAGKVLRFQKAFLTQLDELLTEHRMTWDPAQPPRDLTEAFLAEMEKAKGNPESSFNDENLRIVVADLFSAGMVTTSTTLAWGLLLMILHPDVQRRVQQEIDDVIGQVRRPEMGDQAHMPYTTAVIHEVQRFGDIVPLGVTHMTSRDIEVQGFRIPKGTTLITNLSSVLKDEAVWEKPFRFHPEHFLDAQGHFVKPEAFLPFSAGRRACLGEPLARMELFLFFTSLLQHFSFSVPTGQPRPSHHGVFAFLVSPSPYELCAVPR

[33] = Plasma protein binding in human at 2000 ng/ml after 0.5 hrs by LC-MS/MS analysis; type: ADME, cell-free; details: read-out: PPB (converted)
Canis familiaris [34] = test: AUC in Beagle dog at 0.5 mg/kg, po; type: ADME, organism-based, Canis lupus familiaris, Plasma; parameters: dose 0.5 mg/kg, route oral; details: in vivo
[35] = Plasma protein binding in human at 20 ng/ml after 0.5 hrs by LC-MS/MS analysis; type: ADME, cell-free; details: read-out: PPB (converted)
[36] = Plasma protein binding in dog at 2000 ng/ml after 0.5 hrs by LC-MS/MS analysis; type: ADME, cell-free, Canis lupus familiaris; details: read-out: PPB (converted)
[37] = Drug excretion in dog feces assessed as unchanged drug at 1 mg/kg, iv measured over 24 hrs; type: ADME, organism-based, Canis lupus familiaris; parameters: dose 1 mg/kg, route intravenous; details: faeces, read-out: AE
Cytochrome P450 3A4 [38] = molecular target: T2, Cytochrome P450 3A4; test: Inhibition of CYP3A4; type: ADME
Rattus norvegicus [39] = test: Inhibition of plasma DPP-4 activity in Wistar/ST rat at 3 mg/kg, po pretreated 30 mins before glucose challenge measured for 2 hrs during oral glucose tolerance test; type: functional
[40] = Plasma protein binding in rat at 2000 ng/ml after 0.5 hrs by LC-MS/MS analysis; type: ADME, cell-free; details: read-out: PPB (converted)
Dipeptidyl peptidase 8 = Dipeptidyl peptidase 8 (Homo sapiens, UniProt Q6V1X1); test: Inhibition of human recombinant DPP-8 expressed in Sf9 cells using H-Gly-Pro-AMC as substrate preincubated for 30 mins before substrate addition measured after 20 mins by fluorescence assay
Chain of Dipeptidyl peptidase 8 (Q6V1X1 whole entry): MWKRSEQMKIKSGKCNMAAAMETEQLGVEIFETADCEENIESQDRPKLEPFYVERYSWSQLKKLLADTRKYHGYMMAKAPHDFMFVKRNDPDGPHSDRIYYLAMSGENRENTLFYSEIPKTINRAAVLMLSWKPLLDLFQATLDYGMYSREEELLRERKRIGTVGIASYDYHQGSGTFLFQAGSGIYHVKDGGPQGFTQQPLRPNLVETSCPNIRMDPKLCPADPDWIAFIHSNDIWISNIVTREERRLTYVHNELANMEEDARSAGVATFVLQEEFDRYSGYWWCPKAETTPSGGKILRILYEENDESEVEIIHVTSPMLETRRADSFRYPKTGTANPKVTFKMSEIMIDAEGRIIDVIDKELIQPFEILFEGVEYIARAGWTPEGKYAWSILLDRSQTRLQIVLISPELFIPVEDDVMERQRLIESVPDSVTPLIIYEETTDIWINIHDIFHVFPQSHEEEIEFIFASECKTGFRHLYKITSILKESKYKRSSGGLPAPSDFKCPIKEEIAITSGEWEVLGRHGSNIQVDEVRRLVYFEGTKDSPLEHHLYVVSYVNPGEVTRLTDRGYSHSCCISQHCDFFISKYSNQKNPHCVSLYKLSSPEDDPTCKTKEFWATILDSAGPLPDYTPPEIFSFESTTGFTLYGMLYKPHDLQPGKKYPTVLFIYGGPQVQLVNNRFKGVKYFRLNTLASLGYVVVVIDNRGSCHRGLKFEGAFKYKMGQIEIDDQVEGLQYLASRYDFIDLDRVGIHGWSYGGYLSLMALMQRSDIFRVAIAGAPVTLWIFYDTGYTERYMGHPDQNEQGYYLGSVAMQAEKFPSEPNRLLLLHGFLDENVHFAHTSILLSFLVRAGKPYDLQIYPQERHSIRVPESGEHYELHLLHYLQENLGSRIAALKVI

Cytochrome P450 2C9 [41] = molecular target: T3, Cytochrome P450 2C9; test: Induction of CYP2C9 at 50 uM; type: ADME
[42] = Drug excretion in dog urine assessed as unchanged drug at 1 mg/kg, iv measured over 24 hrs; type: ADME, organism-based, Canis lupus familiaris; parameters: dose 1 mg/kg, route intravenous; details: read-out: AE
Dipeptidyl peptidase 2 = Dipeptidyl peptidase 2 (Homo sapiens, UniProt Q9UHL4); test: Inhibition of DPP-2 expressed in human Caco-2 cells using H-Lys-Ala-AMC as substrate preincubated for 30 mins before substrate addition measured after 20 mins by fluorescence assay; type: cell-based

Compound: Cc1cc2ncc(C(=O)NCC(C)(C)NCC(=O)N3CCC[C@H]3C#N)cn2n1.Cl [ANAGLIPTIN HYDROCHLORIDE]
- AUC (Rattus norvegicus [1]): 1160 ng·h/mL
- clearance [2]: 10.8 mL/min/kg
- dose excreted at 24 h [3]: 41%
- IC50 (Cytochrome P450 1A2 [4]): > 10 µM
- IC50 (Cytochrome P450 2C19): > 10 µM
- Activity (Cytochrome P450 3A4 [5]): Not Active
- half-life [6]: 1.9 h
- CLint scaled [7]: 1.67 mL/min/kg
- Cmax [8]: 62 ng/mL
- half-life [9]: 1 h
- clearance [10]: 33.3 mL/min/kg
- Vdss (Rattus norvegicus [11]): 0.68 L/kg
- IC50 (Dipeptidyl peptidase 9): 60 µM
- fraction unbound at 0.5 h, 20 ng/ml [12]: 0.227
- dose excreted at 24 h [13]: 13%
- CLint scaled [14]: 5 mL/min/kg
- IC50 [15]: > 500 µM
- Tmax [16]: 1.5 h
- bioavailability [17]: 23%
- Activity (Cytochrome P450 1A2 [18]): Not Active
- dose excreted at 24 h [19]: 30%
- CLint scaled [20]: 23.3 mL/min/kg
- bioavailability [21]: 100%
- Tmax [22]: 2.3 h
- Cmax [23]: 261 ng/mL
- Vdss (Canis familiaris [24]): 0.83 L/kg
- Cmax [25]: 309 ng/mL
- dose excreted at 24 h [26]: 14%
- Tmax [27]: 0.8 h
- IC50 (Cytochrome P450 2C9 [28]): > 10 µM
- fraction unbound at 0.5 h, 20 ng/ml [29]: 0.352
- Cmax [30]: 14 nM
- Activity (Salmonella typhimurium): Non-toxic
- Activity (Cytochrome P450 2C8): Not Active
- inhibition in vivo at 0.1 mg/kg (Rattus norvegicus [31]): 30%
- CLint scaled [32]: 8.33 mL/min/kg
- IC50 (Cytochrome P450 2D6): > 10 µM
- fraction unbound at 0.5 h, 2000 ng/ml [33]: 0.736
- AUC (Canis familiaris [34]): 824 ng·h/mL
- fraction unbound at 0.5 h, 20 ng/ml [35]: 0.708
- fraction unbound at 0.5 h, 2000 ng/ml [36]: 0.482
- dose excreted at 24 h [37]: 24%
- IC50 (Cytochrome P450 3A4 [38]): > 10 µM
- inhibition in vivo at 3 mg/kg (Rattus norvegicus [39]): 95%
- fraction unbound at 0.5 h, 2000 ng/ml [40]: 0.229
- IC50 (Dipeptidyl peptidase 8): 68 µM
- Activity (Cytochrome P450 2C9 [41]): Not Active
- dose excreted at 24 h [42]: 32%

Compound: Cc1cc2ncc(C(=O)NCC(C)(C)NCC(=O)N3CCC[C@H]3C#N)cn2n1 [ANAGLIPTIN]
- IC50 (Dipeptidyl peptidase 2): 177 µM
